Tested on: 299254-011-R-J1-PDC complex spheroids viability
Assay: Anticancer human tumor 299254-011-R-J1-PDC patient-derived melanoma cell line growth inhibition [GQUAD]
Conditions: for IC50: curve of first compound; for viability, T/C: stronger effect = lower value; active = viability on the fitted dose curve at most 10% of control; inactive = the rest
How it was run: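 Viability of tumor cells grown as complex spheroids with endothelial and stromal cells, exposed to drug combinations. Top concentration at or near clinical Cmax (else 10 microM), diluted in half-log increments.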

[1] = second compound 0.0316 µM, first compound 0.0316 µM
[2] = second compound 0.0316 µM, first compound 0.1 µM
[3] = second compound 0.0316 µM, first compound 0.316 µM
[4] = second compound 0.0316 µM, first compound 1 µM
[5] = second compound 0.0316 µM, first compound 3.16 µM
[6] = second compound 0.0316 µM, first compound 10 µM
[7] = second compound 0.1 µM, first compound 0.0316 µM
[8] = second compound 0.1 µM, first compound 0.1 µM
[9] = second compound 0.1 µM, first compound 0.316 µM
[10] = second compound 0.1 µM, first compound 1 µM
[11] = second compound 0.1 µM, first compound 3.16 µM
[12] = second compound 0.1 µM, first compound 10 µM
[13] = second compound 0.316 µM, first compound 0.0316 µM
[14] = second compound 0.316 µM, first compound 0.1 µM
[15] = second compound 0.316 µM, first compound 0.316 µM
[16] = second compound 0.316 µM, first compound 1 µM
[17] = second compound 0.316 µM, first compound 3.16 µM
[18] = second compound 0.316 µM, first compound 10 µM
[19] = second compound 1 µM, first compound 0.0316 µM
[20] = second compound 1 µM, first compound 0.1 µM
[21] = second compound 1 µM, first compound 0.316 µM
[22] = second compound 1 µM, first compound 1 µM
[23] = second compound 1 µM, first compound 3.16 µM
[24] = second compound 1 µM, first compound 10 µM
[25] = second compound 3.16 µM, first compound 0.0316 µM
[26] = second compound 3.16 µM, first compound 0.1 µM
[27] = second compound 3.16 µM, first compound 0.316 µM
[28] = second compound 3.16 µM, first compound 1 µM
[29] = second compound 3.16 µM, first compound 3.16 µM
[30] = second compound 3.16 µM, first compound 10 µM
[31] = second compound 10 µM, first compound 0.0316 µM
[32] = second compound 10 µM, first compound 0.1 µM
[33] = second compound 10 µM, first compound 0.316 µM
[34] = second compound 10 µM, first compound 1 µM
[35] = second compound 10 µM, first compound 3.16 µM
[36] = second compound 10 µM, first compound 10 µM
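Note: spheroids exposed to the agents for seven days before readout.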
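Throughout, for viability, T/C: percent viability relative to DMSO vehicle control wells = 100%.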

CCCS(=O)(=O)Nc1ccc(F)c(C(=O)c2c[nH]c3ncc(-c4ccc(Cl)cc4)cc23)c1F + Cc1[nH]c2ccc(F)cc2c1-c1nc2c3cccnc3c3ncccc3c2[nH]1
8.05 µM: IC50 (second compound 0.316 µM)
8.51 µM: IC50 (second compound 0.1 µM)
7.74 µM: IC50 (second compound 3.16 µM)
8.45 µM: IC50 (second compound 0.0316 µM)
7.26 µM: IC50 (second compound 1 µM)
inactive: viability, T/C [1] 91.6% | viability, T/C [2] 109% | viability, T/C [3] 109% | viability, T/C [4] 88.3% | viability, T/C [5] 76.8% | viability, T/C [6] 45.4% | viability, T/C [7] 98.6% | viability, T/C [8] 110% | viability, T/C [9] 100% | viability, T/C [10] 82.7% | viability, T/C [11] 105% | viability, T/C [12] 41.9% | viability, T/C [13] 86.6% | viability, T/C [14] 123% | viability, T/C [15] 110% | viability, T/C [16] 108% | viability, T/C [17] 90.7% | viability, T/C [18] 40.4% | viability, T/C [19] 94.8% | viability, T/C [20] 103% | viability, T/C [21] 84.1% | viability, T/C [22] 107% | viability, T/C [23] 79.7% | viability, T/C [24] 38.6% | viability, T/C [25] 91.4% | viability, T/C [26] 109% | viability, T/C [27] 92.3% | viability, T/C [28] 115% | viability, T/C [29] 82.6% | viability, T/C [30] 40.7% | viability, T/C [31] 81.3% | viability, T/C [32] 108% | viability, T/C [33] 101% | viability, T/C [34] 105% | viability, T/C [35] 88.8% | viability, T/C [36] 35.8%
7.38 µM: IC50 (second compound 10 µM)

Cc1[nH]c2ccccc2c1CCNCc1ccc(/C=C/C(=O)NO)cc1 + Cc1[nH]c2ccc(F)cc2c1-c1nc2c3cccnc3c3ncccc3c2[nH]1
inactive: viability, T/C (second compound 0.0316 µM, first compound 0.000999 µM) 95.9% | viability, T/C (second compound 0.0316 µM, first compound 0.00316 µM) 81.8% | viability, T/C (second compound 0.0316 µM, first compound 0.00999 µM) 92.5% | viability, T/C [1] 81.3% | viability, T/C (second compound 0.0316 µM, first compound 0.0999 µM) 56.3% | viability, T/C [3] 21.5% | viability, T/C (second compound 0.1 µM, first compound 0.000999 µM) 95.3% | viability, T/C (second compound 0.1 µM, first compound 0.00316 µM) 119% | viability, T/C (second compound 0.1 µM, first compound 0.00999 µM) 81.8% | viability, T/C [7] 71.1% | viability, T/C (second compound 0.1 µM, first compound 0.0999 µM) 64.5% | viability, T/C [9] 22% | viability, T/C (second compound 0.316 µM, first compound 0.000999 µM) 88.1% | viability, T/C (second compound 0.316 µM, first compound 0.00316 µM) 99.4% | viability, T/C (second compound 0.316 µM, first compound 0.00999 µM) 95.8% | viability, T/C [13] 77.6% | viability, T/C (second compound 0.316 µM, first compound 0.0999 µM) 86.3% | viability, T/C [15] 25.5% | viability, T/C (second compound 1 µM, first compound 0.000999 µM) 96.1% | viability, T/C (second compound 1 µM, first compound 0.00316 µM) 87.4% | viability, T/C (second compound 1 µM, first compound 0.00999 µM) 93.7% | viability, T/C [19] 89% | viability, T/C (second compound 1 µM, first compound 0.0999 µM) 81.8% | viability, T/C [21] 23.6% | viability, T/C (second compound 3.16 µM, first compound 0.000999 µM) 93.8% | viability, T/C (second compound 3.16 µM, first compound 0.00316 µM) 79.2% | viability, T/C (second compound 3.16 µM, first compound 0.00999 µM) 86.6% | viability, T/C [25] 85.8% | viability, T/C (second compound 3.16 µM, first compound 0.0999 µM) 74.8% | viability, T/C [27] 26.7% | viability, T/C (second compound 10 µM, first compound 0.000999 µM) 78.2% | viability, T/C (second compound 10 µM, first compound 0.00316 µM) 105% | viability, T/C (second compound 10 µM, first compound 0.00999 µM) 94.6% | viability, T/C [31] 84.1% | viability, T/C (second compound 10 µM, first compound 0.0999 µM) 74.8% | viability, T/C [33] 17.9%
0.187 µM: IC50 (second compound 1 µM)
0.198 µM: IC50 (second compound 0.316 µM)
0.181 µM: IC50 (second compound 3.16 µM)
0.163 µM: IC50 (second compound 10 µM)
0.123 µM: IC50 (second compound 0.0316 µM)
0.128 µM: IC50 (second compound 0.1 µM)

O=C(NO)c1cnc(N2CCN(S(=O)(=O)c3ccc4ccccc4c3)CC2)nc1 + Cc1[nH]c2ccc(F)cc2c1-c1nc2c3cccnc3c3ncccc3c2[nH]1
1.3 µM: IC50 (second compound 3.16 µM)
inactive: viability, T/C [1] 119% | viability, T/C [2] 98% | viability, T/C [3] 76.8% | viability, T/C [4] 9.39% | viability, T/C [7] 99.2% | viability, T/C [8] 111% | viability, T/C [9] 90.2% | viability, T/C [10] 18.1% | viability, T/C [13] 91.4% | viability, T/C [14] 102% | viability, T/C [15] 88.8% | viability, T/C [16] 50.3% | viability, T/C [19] 112% | viability, T/C [20] 91.6% | viability, T/C [21] 80.9% | viability, T/C [22] 79.2% | viability, T/C [25] 99.2% | viability, T/C [26] 120% | viability, T/C [27] 108% | viability, T/C [28] 64.5% | viability, T/C [31] 87.8% | viability, T/C [32] 103% | viability, T/C [33] 99.6% | viability, T/C [34] 75.4%
0.988 µM: IC50 (second compound 0.316 µM)
active: viability, T/C [5] 0.24% | viability, T/C [6] 0.27% | viability, T/C [11] 0.2% | viability, T/C [12] 0.25% | viability, T/C [17] 0.17% | viability, T/C [18] 0.21% | viability, T/C [23] 0.19% | viability, T/C [24] 0.22% | viability, T/C [29] 0.22% | viability, T/C [30] 0.21% | viability, T/C [35] 0.25% | viability, T/C [36] 0.25%
0.496 µM: IC50 (second compound 0.0316 µM)
1.48 µM: IC50 (second compound 10 µM)
1.53 µM: IC50 (second compound 1 µM)
0.602 µM: IC50 (second compound 0.1 µM)
